{"source": "patent US10166203B2", "about": "“Pharmaceutical composition for treating cancer including 2-methoxy-4-(3-(4-methoxyphenyl)prop-1-en-1-yl)phenol as active ingredient” (CHUNGBUK NATIONAL UNIVERSITY INDUSTRY-ACADEMIC COOPERATION …, priority 2015, dated 2019)", "key": {"SW480 cells [1]": {"tested_on": "SW480 cells", "test": "Cell viability analysis using MTT assay", "assay_type": "cell-based, human", "description": "The human colon cancer cell line, SW480, was purchased from the American Type Culture Collection (Manassas, Va., USA) and cultured in an RPMI (Roswell Park Memorial Institute)-1640 medium (Gibco-BRL) to which 10% heat-inactivated fetal bovine serum (FBS) and penicillin/streptomycin at 37° C. humidified atmosphere of 5% CO2. The cells were cultured in a 100 mm culture dish at a concentration of 4×10^5 cells for experiments.\nThe influence of 2-methoxy-4-(3-(4-methoxyphenyl)prop-1-en-1-yl)phenol (MMPP) on the viability of cells was confirmed by colorimetric and metabolic activity assay using MTT [3-(4,5-dimethylthiazol-2-yl)-2,5-diphenyltetrazolium bromide]. Put briefly, cells were inoculated on 96-well plates at 1×10^4 cells/well and cultured for 24 hours. Cells were treated with 2.5 to 10 μg/ml MMPP or DMSO (dimethyl sulfoxide), a solvent for MMPP. After culturing for 24 hours, the medium including MMPP was removed and replaced with 100 μl of fresh medium. After culturing for 1.5 hours, medium including MTT was removed and 200 μl DMSO was added to each well. The plate was then agitated at a weak intensity until the color reaction of the plate became uniform. Colorimetric evaluation was performed using a microplate reader at 540 nm.\nThe inhibitory effect of MMPP on the growth of human colon cancer cells was examined using SW480 cells."}, "SW480 cells [2]": {"tested_on": "SW480 cells", "test": "Western blot analysis of cell cycle regulatory and apoptosis signal proteins", "assay_type": "cell-based, human", "description": "Lysates, cytosolic and nuclear extracts of whole cells were obtained. SDS-PAGE and western blot analysis were performed as described in published documents 1 and 2 [1, 2]. Put briefly, the cells of 5×10^5 cells/well were inoculated in 6-well plates and cultured for 24 hours. Cells were then treated with MMPP or DMSO for 24 hours. The treated cells were washed twice with PBS and lysed. Proteins from the lysed cells were separated on 10 to 15% SDS-PAGE. Proteins were transferred to a PVDF membrane and the PVDF membrane was blocked with TBS/T-buffer including 5% defatted milk for 2.5 hours at room temperature. The membrane to which the proteins are transferred was analyzed by using a mouse monoclonal antibody for as a primary antibody. Protein expression was visualized using a chemiluminescence reagent (Amersham Pharmacia Biotech, Inc., Buckinghamshire, UK) and measured using a in which a CCD camera (Fusion-FX, Fisher BioTech, Ltd., Wembley, Australia) is installed.\n2. Effect of MMPP on Cell Cycle Regulatory Signal and Apoptosis Signal In order to investigate the basic mechanism of the growth inhibitory effect of colon cancer cells of MMPP, it was examined whether MMPP treatment affects cell cycle regulation and apoptosis signals in SW480 cells."}, "STAT3": {"target": "T1, STAT3 (Homo sapiens, UniProt P40763)", "T1 construct": "endogenous in cells; host or cells: SW480 cells (nuclear extract)", "T1 sequence (P40763 whole entry)": "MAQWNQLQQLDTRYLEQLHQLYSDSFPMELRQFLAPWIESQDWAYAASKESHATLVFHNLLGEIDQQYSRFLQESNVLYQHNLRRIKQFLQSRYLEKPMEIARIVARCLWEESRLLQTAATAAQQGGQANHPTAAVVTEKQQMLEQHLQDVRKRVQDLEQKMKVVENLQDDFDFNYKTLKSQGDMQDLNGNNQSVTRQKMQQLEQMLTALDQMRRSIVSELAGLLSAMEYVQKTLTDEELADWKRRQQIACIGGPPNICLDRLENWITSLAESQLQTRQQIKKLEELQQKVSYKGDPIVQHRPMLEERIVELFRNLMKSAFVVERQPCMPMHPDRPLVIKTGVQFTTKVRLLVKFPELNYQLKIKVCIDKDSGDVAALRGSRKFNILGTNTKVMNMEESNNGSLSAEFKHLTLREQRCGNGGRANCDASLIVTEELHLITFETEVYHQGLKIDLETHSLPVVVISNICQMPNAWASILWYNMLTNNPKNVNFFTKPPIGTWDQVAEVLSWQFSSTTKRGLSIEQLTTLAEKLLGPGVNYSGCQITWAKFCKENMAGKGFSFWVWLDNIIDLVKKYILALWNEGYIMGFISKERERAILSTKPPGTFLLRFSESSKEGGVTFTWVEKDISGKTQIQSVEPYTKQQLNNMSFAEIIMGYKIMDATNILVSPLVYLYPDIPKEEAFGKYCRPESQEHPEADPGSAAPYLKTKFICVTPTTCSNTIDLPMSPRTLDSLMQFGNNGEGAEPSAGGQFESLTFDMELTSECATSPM", "test": "DNA binding activity of STAT3 using EMSA", "assay_type": "cell-based", "conditions": "SW480 cells exposed for 1 hour", "description": "The DNA binding activity of STAT3 was measured using an electrophoretic mobility shift assay (EMSA) as described in document 1. Put briefly, cells were cultured in a 100 mm culture dish at 37° C. for 24 hours and then treated with MMPP or DMSO. After incubation for 24 hours, the cells were washed three times with cold PBS and nuclear extracts for EMSA experiments were prepared. Relative thickness of the DNA-protein binding band was quantified using Lab Works 4.0 software (UVP Inc., Upland, Calif., USA) after scanning with densitometry.\nIn order to determine whether MMPP reacted with STAT3 to inhibit DNA binding activity of STAT3, MMPP was exposed to SW480 cells for 1 hour and the DNA binding activity of STAT3 was measured."}, "SW480 xenografted mouse": {"tested_on": "SW480 xenografted mouse", "test": "Anticancer activity in a colon cancer xenograft animal model", "assay_type": "in vivo", "conditions": "twice a week for 3 weeks, nude mice"}}, "data": [{"smiles": "COc1ccc(C/C=C/c2ccc(O)c(OC)c2)cc1", "note": "[MMPP, 2-methoxy-4-(3-(4-methoxyphenyl)propyl-1-en-1-yl)phenol]", "values": [{"measurement": "cell density compared to the control group", "setting": "SW480 cells [1]", "result": "significantly reduced cell density"}, {"measurement": "IC50", "setting": "SW480 cells [1]; Homo sapiens, MMPP 2.5 to 10 μg/ml, treated for 24 hours, MTT, read-out: IC50 value, inhibition of the growth of SW480 cells", "result": 5.9, "unit": "µg/mL"}, {"measurement": "expression of cell cycle regulatory signal proteins", "setting": "SW480 cells [2]", "result": "effectively reduced the expression"}, {"measurement": "expression of pro-apoptotic proteins cleaved caspase-3, cleaved caspase-8 and Bax", "setting": "SW480 cells [2]", "result": "increased the expression"}, {"measurement": "expression of the anti-apoptotic protein Bcl-2", "setting": "SW480 cells [2]", "result": "reduced the expression"}, {"measurement": "DNA binding activity of STAT3", "setting": "STAT3", "result": "effectively inhibited DNA binding activity of STAT3"}, {"measurement": "Tumor volume compared to the control group", "setting": "SW480 xenografted mouse; 2.5 mg/kg intraperitoneal", "result": 65, "unit": "%"}, {"measurement": "Tumor volume compared to the control group", "setting": "SW480 xenografted mouse; 5 mg/kg intraperitoneal", "result": 35, "unit": "%"}]}]}
